# From paper PMC8752738, “A propolis-derived small molecule ameliorates metabolic syndrome in obese mice by targeting the CREB/CRTC2 transcriptional complex” (Nature Communications, 2022)
# What was measured:
# [1] = target: T1, CREB-CRTC2 interaction (Homo sapiens, UniProt P16220); experiment: CREB–CRTC2 mammalian two-hybrid assay (GAL4-Luc reporter); format: cell-based
# T1 construct: expressed in transfected cells; host or cells: HEK293T
# [2] = target: T2, HIS-CREB protein (Homo sapiens, UniProt P16220); experiment: Isothermal titration calorimetry; format: binding
# T2 construct: made in house
# T2 sequence (P16220 whole entry): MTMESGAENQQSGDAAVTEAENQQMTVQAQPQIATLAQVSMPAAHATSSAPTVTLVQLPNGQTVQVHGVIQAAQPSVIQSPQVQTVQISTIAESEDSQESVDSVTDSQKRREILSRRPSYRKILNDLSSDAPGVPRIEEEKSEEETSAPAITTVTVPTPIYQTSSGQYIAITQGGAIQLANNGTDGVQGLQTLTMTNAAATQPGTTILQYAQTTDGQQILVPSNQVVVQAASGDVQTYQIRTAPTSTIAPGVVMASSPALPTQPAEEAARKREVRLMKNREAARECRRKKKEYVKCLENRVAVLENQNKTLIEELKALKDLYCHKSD
# Description: Isothermal titration calorimetry was performed using a MicroCal iTC200 calorimeter (Freiburg, Germany). The purified HIS-CREB protein and APC were diluted in buffer (PBS with 500 mM NaCl and 10% glycine, pH 8.0). APC solution was titrated by injection of HIS-CREB. The originally released heat from molecules binding was recorded and analyzed by Origin9 software (Origin Lab) supplied with the instrument.
# T1 sequence (P16220 whole entry, the tested form may be a part): as the sequence (P16220 whole entry) above
compound,measurement,setting,value
"CCOC(=O)/C=C/c1ccc(O)cc1 [P4, (E)-p-hydroxycinnamic acid ethyl ester]",reporter activity of CREB–CRTC2 two-hybrid assay,[1],nor decreased CREB/CRTC2 interaction
same,direct binding with HIS-CREB proteins (ITC),[2],neither directly bound with HIS-CREB proteins
